According to ChEMBL document CHEMBL1201862, “PubChem BioAssay data set” (2004):
Activity calls are given as the source filed them.

Legend:
HeLa = test: ATP-based viability loss in HeLa cells – cell-based, CellTiter-Glo luminescence, cherry-pick samples, cytotoxicity control for MITF activator project, dose response (AID 540259); type: functional; conditions: Homo sapiens
[1] = viability of uninfected HEp-2 cells – cell-based, HTS, cytotoxicity control for RSV inhibitor project, dose response (AID 2410); type: functional; conditions: human respiratory syncytial virus
Vero [2] = test: cells; type: functional, cell-based; conditions: Chlorocebus sabaeus
Vero [3] = test: cells; type: functional; conditions: Chlorocebus sabaeus
cells [4] = test: cells
[5] = molecular target: T1, Short transient receptor potential channel 4 (Mus musculus, UniProt Q9QUQ5); test: calcium entry via TRPC4 opening agents – cell-based, HEK293 TRPC4/mu-opioid, Fluo-4 calcium, dose response (AID 434937); type: functional
T1 sequence (Q9QUQ5 whole entry): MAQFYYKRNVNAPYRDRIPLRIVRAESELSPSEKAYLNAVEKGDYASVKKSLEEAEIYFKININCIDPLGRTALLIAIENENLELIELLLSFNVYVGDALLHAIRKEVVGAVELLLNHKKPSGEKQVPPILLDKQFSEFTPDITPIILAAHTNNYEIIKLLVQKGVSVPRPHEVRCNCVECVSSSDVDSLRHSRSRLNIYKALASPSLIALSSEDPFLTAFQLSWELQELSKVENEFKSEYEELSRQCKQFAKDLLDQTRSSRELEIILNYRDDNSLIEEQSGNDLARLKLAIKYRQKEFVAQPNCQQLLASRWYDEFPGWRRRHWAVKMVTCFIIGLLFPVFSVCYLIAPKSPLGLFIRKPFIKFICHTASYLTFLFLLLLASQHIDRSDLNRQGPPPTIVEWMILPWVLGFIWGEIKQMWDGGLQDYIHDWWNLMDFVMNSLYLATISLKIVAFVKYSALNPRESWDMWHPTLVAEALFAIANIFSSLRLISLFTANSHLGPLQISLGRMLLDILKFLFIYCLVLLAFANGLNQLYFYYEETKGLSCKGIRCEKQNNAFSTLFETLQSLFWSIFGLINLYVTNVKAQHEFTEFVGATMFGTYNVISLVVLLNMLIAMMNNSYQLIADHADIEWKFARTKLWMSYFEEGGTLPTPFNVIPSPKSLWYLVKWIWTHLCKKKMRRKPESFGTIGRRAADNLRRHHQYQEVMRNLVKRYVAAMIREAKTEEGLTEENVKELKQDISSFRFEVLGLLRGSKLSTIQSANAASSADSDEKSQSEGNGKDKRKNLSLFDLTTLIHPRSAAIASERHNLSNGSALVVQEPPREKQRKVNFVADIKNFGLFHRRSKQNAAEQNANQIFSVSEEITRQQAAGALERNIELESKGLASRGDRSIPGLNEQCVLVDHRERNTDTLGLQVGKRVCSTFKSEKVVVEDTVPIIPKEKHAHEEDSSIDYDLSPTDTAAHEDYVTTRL

[6] = molecular target: T1, Short transient receptor potential channel 4; test: block of DAMGO-driven TRPC4 calcium entry – cell-based, HEK293 TRPC4/mu-opioid, Fluo-4 calcium, dose response (AID 434942); type: functional;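 also: potency of inhibitors blocking the TRPC4 calcium response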
HEK293 = test: cells; type: functional, cell-based; conditions: Homo sapiens
[7] = Luminescence Cell-Based Dose Response to Identify Activators of Luciferase Translation or Activity in H4-C Neuroglioblastoma Cells. [Related pubchem assays: 1829 (Project Summary), 1814 (Primary HTS)]; type: functional
[8] = Luminescence Cell-Based Dose Response to Identify Activators of 5'UTR Stem-Loop Driven Prion Protein mRNA Translation in H4-C Neuroglioblastoma Cells. [Related pubchem assays: 1829 (Project Summary), 1814 (Primary HTS)]; type: functional
[9] = Luminescence Cell-Based Dose Response HTS to Identify Activators of Luciferase Translation or Activity in H4 […] Cells. [Related pubchem assays: 1829 (Project Summary), 1814 (Primary HTS)]; type: functional
[10] = molecular target: T2, Nuclear receptor subfamily 0 group B member 1 (Homo sapiens, UniProt P51843); test: Luminescence-based cell-based high throughput dose response assay for inhibitors of the orphan nuclear receptor subfamily 0, group B, member 1 (DAX1; NR0B1). [Related pubchem assays (depositor defined):AID504766, AID504790]; type: functional
T2 sequence (P51843 whole entry): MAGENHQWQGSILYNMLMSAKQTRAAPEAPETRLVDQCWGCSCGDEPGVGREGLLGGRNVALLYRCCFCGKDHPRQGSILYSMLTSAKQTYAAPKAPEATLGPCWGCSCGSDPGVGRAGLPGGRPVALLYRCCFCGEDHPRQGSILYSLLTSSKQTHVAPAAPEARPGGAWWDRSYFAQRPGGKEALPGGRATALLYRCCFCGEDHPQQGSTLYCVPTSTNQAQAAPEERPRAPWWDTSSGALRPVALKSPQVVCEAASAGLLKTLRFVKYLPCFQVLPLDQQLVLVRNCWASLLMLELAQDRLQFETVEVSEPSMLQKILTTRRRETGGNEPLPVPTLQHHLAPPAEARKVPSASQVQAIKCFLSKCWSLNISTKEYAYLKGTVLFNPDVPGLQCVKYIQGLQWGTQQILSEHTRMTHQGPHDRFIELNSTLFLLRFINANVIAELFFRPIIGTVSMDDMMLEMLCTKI

[11] = Luminescence Cell-Based Dose Confirmation to Identify Activators of 5'UTR Stem-Loop Driven Alpha-Synuclein mRNA Translation in H4 Neuroglioblastoma Cells. [Related pubchem assays: 1829 (Project Summary), 1814 (Primary HTS)]; type: functional
H4 = test: Luminescence Cell-Based Dose Response HTS to Identify Activators of 5'UTR Stem-Loop Driven Prion Protein mRNA Translation in H4 Neuroglioblastoma Cells. [Related pubchem assays: 1829 (Project Summary), 1814 (Primary HTS)]; type: functional; conditions: Homo sapiens
Phospholipase A2 = Phospholipase A2 (Homo sapiens, UniProt P04054); type: functional;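 also: confirmatory dose-response counterscreen on phospholipase A2, testing hits that came from an ultra-high-throughput screen for ATG4B inhibitors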
Chain of Phospholipase A2 (P04054 whole entry): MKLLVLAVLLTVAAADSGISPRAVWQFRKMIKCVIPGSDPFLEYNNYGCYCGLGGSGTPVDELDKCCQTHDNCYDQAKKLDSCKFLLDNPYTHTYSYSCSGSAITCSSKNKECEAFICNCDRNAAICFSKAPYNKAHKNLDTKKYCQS

Cysteine protease ATG4B = molecular target: T3, Cysteine protease ATG4B (Homo sapiens, UniProt Q9Y4P1); type: functional;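 also: Fluorescence-based dose-response confirmation assay measuring inhibition of ATG4B activity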
T3 sequence (Q9Y4P1 whole entry): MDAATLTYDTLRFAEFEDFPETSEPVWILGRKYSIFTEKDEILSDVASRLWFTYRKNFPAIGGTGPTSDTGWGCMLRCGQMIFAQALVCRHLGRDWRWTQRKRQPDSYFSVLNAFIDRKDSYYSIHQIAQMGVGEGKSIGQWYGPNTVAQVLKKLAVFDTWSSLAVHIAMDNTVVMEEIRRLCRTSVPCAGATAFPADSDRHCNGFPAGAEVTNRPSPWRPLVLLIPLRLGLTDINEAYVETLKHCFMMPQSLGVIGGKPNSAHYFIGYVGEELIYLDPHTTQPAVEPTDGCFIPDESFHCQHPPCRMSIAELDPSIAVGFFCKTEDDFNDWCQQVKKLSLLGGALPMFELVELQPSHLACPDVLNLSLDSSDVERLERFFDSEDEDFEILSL

cells [12] = test: cells; remark: listed apart in the source
[13] = molecular target: Beta-2 adrenergic receptor (Homo sapiens, UniProt P07550); test: ADRB2 activation measured by internalization – cell-based, FAP fluorogen, flow cytometry, cherry pick 1, dose response (AID 588763); type: functional
Chain of Beta-2 adrenergic receptor (P07550 whole entry, the tested form may be a part): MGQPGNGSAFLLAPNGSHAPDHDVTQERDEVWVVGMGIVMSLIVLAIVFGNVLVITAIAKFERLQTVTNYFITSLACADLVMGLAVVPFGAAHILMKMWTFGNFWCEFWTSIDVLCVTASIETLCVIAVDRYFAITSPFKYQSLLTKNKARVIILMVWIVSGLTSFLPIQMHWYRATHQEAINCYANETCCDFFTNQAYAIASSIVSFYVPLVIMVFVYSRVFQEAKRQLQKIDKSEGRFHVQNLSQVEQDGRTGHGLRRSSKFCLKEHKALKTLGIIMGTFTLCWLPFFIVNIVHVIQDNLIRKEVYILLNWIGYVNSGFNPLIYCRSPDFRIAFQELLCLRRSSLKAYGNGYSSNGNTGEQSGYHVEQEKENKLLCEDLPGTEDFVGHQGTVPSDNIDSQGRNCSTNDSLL

[14] = molecular target: T4, Oxysterols receptor LXR-beta (Homo sapiens, UniProt P55055); type: functional, cell-based;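 also: Cell-based luminescence dose-response assay of agonist activity at LXR, run as a confirmatory counterscreen to a daf-12 agonist screen; HEK293 cells with Gal4-LXR fusion and GAL4-driven luciferase reporter; agonist potency from rising luciferase signal of a Gal4-LXR reporter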
T4 sequence (P55055 whole entry): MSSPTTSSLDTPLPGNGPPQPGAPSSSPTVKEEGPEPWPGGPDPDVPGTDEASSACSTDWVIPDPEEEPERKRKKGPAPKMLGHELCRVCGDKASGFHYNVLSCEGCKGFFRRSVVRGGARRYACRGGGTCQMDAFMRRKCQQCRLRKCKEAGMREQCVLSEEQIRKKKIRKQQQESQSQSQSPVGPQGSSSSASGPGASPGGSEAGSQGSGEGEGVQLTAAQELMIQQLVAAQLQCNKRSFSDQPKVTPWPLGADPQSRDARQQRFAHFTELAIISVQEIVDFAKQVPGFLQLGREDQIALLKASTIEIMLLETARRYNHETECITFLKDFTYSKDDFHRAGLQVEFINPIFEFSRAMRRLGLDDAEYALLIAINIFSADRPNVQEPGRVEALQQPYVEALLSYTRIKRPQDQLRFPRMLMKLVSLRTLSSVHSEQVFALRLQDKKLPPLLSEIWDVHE

Hexokinase HKDC1 = molecular target: T5, Hexokinase HKDC1 (Homo sapiens, UniProt Q2TB90); test: analog inhibition of human HKDC1 activity – biochemical, set 2, SAR follow-up (AID 588355); type: functional
T5 sequence (Q2TB90 whole entry): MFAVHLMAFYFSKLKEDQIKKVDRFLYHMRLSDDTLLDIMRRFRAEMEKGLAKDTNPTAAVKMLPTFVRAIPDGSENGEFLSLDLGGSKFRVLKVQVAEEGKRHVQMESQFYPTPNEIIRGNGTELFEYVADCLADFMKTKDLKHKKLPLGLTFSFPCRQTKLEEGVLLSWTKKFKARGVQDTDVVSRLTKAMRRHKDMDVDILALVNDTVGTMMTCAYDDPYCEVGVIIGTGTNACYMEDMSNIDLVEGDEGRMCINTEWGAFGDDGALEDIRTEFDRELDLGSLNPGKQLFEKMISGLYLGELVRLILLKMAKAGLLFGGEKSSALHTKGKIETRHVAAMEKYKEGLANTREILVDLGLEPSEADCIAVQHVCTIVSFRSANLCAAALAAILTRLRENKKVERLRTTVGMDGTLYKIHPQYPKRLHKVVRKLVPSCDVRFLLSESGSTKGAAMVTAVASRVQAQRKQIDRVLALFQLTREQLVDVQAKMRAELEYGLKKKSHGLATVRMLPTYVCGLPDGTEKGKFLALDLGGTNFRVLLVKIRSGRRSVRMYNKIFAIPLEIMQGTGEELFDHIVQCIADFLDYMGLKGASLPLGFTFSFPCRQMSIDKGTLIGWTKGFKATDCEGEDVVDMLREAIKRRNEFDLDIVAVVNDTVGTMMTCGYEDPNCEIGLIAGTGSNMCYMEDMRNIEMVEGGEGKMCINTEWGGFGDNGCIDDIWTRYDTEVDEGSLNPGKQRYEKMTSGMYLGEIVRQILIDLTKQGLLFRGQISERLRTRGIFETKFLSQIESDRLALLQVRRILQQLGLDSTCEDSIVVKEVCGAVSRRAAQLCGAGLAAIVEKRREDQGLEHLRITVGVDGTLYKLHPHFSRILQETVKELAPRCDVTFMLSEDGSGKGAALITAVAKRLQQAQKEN

Hexokinase-1 = molecular target: T6, Hexokinase-1 (Homo sapiens, UniProt P19367); test: hexokinase 1 activity inhibitors, potency – biochemical, set 2, resazurin fluorescence coupled readout, selectivity assay for HKDC1 inhibitor project, SAR follow-up (AID 588356); type: functional
T6 sequence (P19367 whole entry): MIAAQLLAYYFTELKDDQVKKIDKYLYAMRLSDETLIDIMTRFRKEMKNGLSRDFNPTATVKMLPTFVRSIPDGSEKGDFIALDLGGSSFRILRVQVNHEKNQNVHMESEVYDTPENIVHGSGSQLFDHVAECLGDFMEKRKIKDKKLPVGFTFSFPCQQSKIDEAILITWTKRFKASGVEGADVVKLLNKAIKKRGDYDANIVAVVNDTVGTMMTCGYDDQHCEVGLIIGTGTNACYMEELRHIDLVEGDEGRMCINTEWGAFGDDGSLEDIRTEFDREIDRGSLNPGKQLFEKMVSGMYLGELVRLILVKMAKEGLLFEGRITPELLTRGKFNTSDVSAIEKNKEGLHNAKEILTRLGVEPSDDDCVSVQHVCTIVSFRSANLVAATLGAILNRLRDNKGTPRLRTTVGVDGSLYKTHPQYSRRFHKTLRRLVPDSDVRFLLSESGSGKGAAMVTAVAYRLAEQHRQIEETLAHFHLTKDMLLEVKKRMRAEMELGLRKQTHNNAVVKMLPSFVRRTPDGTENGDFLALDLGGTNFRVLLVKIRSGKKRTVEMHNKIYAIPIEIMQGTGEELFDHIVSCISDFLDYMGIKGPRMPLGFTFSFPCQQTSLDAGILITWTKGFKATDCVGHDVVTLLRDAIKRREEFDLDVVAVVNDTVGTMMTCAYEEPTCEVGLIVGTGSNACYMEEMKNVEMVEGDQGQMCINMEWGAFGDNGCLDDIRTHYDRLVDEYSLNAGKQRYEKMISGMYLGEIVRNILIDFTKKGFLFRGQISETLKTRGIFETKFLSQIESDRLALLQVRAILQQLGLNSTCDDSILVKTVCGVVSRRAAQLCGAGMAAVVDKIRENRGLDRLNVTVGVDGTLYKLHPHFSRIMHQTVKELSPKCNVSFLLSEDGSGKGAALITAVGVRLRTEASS

[15] = molecular target: Dual specificity tyrosine-phosphorylation-regulated kinase 1A (Rattus norvegicus, UniProt Q63470); type: biochemical, Homo sapiens

## COc1ccccc1OCc1cc(-c2ccccc2)no1
HeLa
  AC50: 48 µM (active)

## COc1cccc(NC(=O)[C@H](Cc2c[nH]c3ccccc23)NC(=O)[C@@H]2Cc3ccccc3CN2)c1
[1]
  CC50: 17.1 µM (active)
Vero [2]
  IC50: 9.61 µM (active)
Vero [3]
  CC50: > 25 µM (active)
Cells [4]
  IC50: 7.96 µM (active)

## CN(C)C(CNC(=O)c1cc2ccccc2oc1=O)c1ccccc1 (configuration not stated)
[5]
  EC50: 0.299 µM (active)
[6]
  EC50: 0.149 µM (active)
HeLa
  AC50: 240 µM (active)

## CC(C)c1cc(C(=O)NCCc2ccccc2)no1
HEK293
  IC50: > 67.5 µM (inactive)
[7]
  EC50: 0.375 µM (active)
[8]
  EC50: 1.54 µM (active)
[9]
  EC50: < 0.1 µM (inconclusive)
[10]
  IC50: > 67.5 µM (inactive)
[11]
  EC50: 1.06 µM (active)
H4
  EC50: 7.28 µM (active)

## Cc1c(Cl)c([N+](=O)[O-])nn1Cc1ccc(C(=O)Nc2ccc(Cl)cn2)o1
Phospholipase A2
  IC50: 11.1 µM (active)
Cysteine protease ATG4B
  IC50: 22.5 µM (inactive)

## Cn1c(=N)n(CC(=O)c2ccc(Br)cc2)c2ccccc21
Cells [12]
  EC50: > 67.5 µM (inactive)
[13]
  EC50: 15.6 µM (inactive)
[14]
  EC50: > 67.5 µM (inactive)

## Cc1ccccc1N1C(=O)c2ccccc2C1Nc1ccc(F)cc1 (configuration not stated)
Hexokinase HKDC1
  IC50: > 80 µM (inactive)
Hexokinase-1
  IC50: > 80 µM (inactive)

## O=c1c2cc(F)ccc2nc(/C=C/c2cccnc2)n1Cc1ccccc1
Hexokinase HKDC1
  IC50: > 80 µM (inactive)
Hexokinase-1
  IC50: > 80 µM (inactive)

## COc1ccc(O)c(-c2cc(-c3ccccc3Cl)n[nH]2)c1
[15]
  AC50: 2.77 µM (active)

## O=c1cc(-c2ccccc2)oc2ccc(O)cc12 [6-HYDROXYFLAVONE]
HEK293
  IC50: > 67.6 µM (inactive)
[10]
  IC50: > 67.6 µM (inactive)
